# Test results taken from PMC8742957, “Functional signaling test identifies HER2 negative breast cancer patients who may benefit from c-Met and pan-HER combination therapy” (Cell Communication and Signaling : CCS, 2022).
# Where two headings read alike, the source gives them in different places.
# Tests used:
# HER-family receptors = experiment: CELsignia real-time live cell IC50 titration of pan-HER inhibitors against NRG1b/EGF stimulation, primary breast cancer cells; assay type: cell-based, human; details: six primary breast cancer cell samples with hyperactive HER- and c-Met signaling; inhibitor 18 h before NRG1b/EGF; Poziotinib three, Tucatinib five samples
# Method: Owing to limited numbers of non-passaged or low passaged primary cells, 1000-fold, five-point dose response for antagonists to HER-family and c-Met receptors was performed for each corresponding agonist stimulus (i.e. NRG1b/EGF for HER-family activation and HGF for c-Met activation) in a live-cell CELsignia assay and the observed values were averaged. Drug additions were made 18 h prior to agonist addition. The measurand recording period of four hours began after the agonist addition. Response was plotted as a percent of the maximum response to the agonist observed in the absence of any antagonist using GraphPad Prism software and IC50 values were derived using non-linear regression.
# A representative dose–response curve of cells from patient R66 to stimulation with NRG1b/EGF following pre-treatment with the indicated antagonists is shown in Fig. 4a. A total of six primary cell lines isolated from as many patients were included in this IC50 titration test and the average values are summarized in Table 1. The IC50 values for pan-HER antagonists against NRG1b/EGF stimulation determined from our real-time live cell assay align with what was previously reported in cell-free assays.
# BT-474 cells = experiment: Flow cytometry of cell toxicity markers, BT-474, 72 h; assay type: cell-based, human; details: neratinib and/or tepotinib
# Method: For analysis of cell toxicity, single cell suspensions were stained with TMRE (200 nM for 30 min), washed with FACS buffer, and stained with Annexin V-AlexaFluor647 (Biolegend; San Diego, CA) following the manufacturers’ instructions. The TMRE/Annexin V stained cells were resuspended in FACS buffer containing Sytox Blue (Thermo Fisher; Waltham, MA) and analyzed on a Novocyte 3000 FACS instrument and NovoExpress software (Agilent; Santa Clara, CA). For analysis of intracellular phosphoproteins by FACS, cells were stained using a Live/Dead fixable dye (Zombie NIR; BioLegend), fixed using 1.6% paraformaldehyde, permeabilized with cold-methanol, and then stained using antibodies towards AKT-pS473 (Cell Signaling Technology; Danvers, MA) and FAK-pS910 (BD Biosciences) (Table S2) prior to FACS analysis. […]
# marker resistance to prolonged drug treatment – Normal signaling cell line, BT474. BT-474 […]
# These cell lines were treated with neratinib […]
# (§1) cytometry for cell death using Sytox Blue, apoptosis marker annexin V, and mitochondrial potential by TMRE staining. Flow cytometry histogram plots are representative of at least two […]
# (§2) according to these markers.
# (§3) (1 picture or pasted object on this page, not shown here)
# [1] = tested on: AKT-pS473 and FAK-pS910 in HCC1954 cells; experiment: Intracellular phospho-flow cytometry of AKT-pS473 and FAK-pS910, HCC1954; assay type: cell-based, human; details: 16 h
# BT-20 cells = experiment: Flow cytometry of cell toxicity markers, BT-20; assay type: cell-based, human; details: 250 nM, singly or in combination, 16h
# Method: (§4) For analysis of cell toxicity, single cell suspensions were stained with TMRE (200 nM for 30 min), washed with FACS buffer, and stained with Annexin V-AlexaFluor647 (Biolegend; San Diego, CA) following the manufacturers’ instructions. The TMRE/Annexin V stained cells were resuspended in FACS buffer containing Sytox Blue (Thermo Fisher; Waltham, MA) and analyzed on a Novocyte 3000 FACS instrument and NovoExpress software (Agilent; Santa Clara, CA). For analysis of intracellular phosphoproteins by FACS, cells were stained using a Live/Dead fixable dye (Zombie NIR; BioLegend), fixed using 1.6% paraformaldehyde, permeabilized with cold-methanol, and then stained using antibodies towards AKT-pS473 (Cell Signaling Technology; Danvers, MA) and FAK-pS910 (BD Biosciences) (Table S2) prior to FACS analysis.
# Figure S7. CELsignia test is more sensitive and rapid for detecting anti-cancer drug efficacy compared to biological correlates – Normal signaling cell line, BT-20. BT-20 cells were normal signaling for HER and c-Met by the CELsignia test. To test flow cytometry markers for correlation a test was setup following the dose and time parameters used for the CELsignia test. The cells […]
# (250 nM) and neratinib (250 nM), either singly or in combination, as indicated. Cells were harvested and then analyzed by flow cytometry for the markers shown following a period of 16h […]
# as §3
# Figure S9. CELsignia test is more sensitive and rapid for detecting anti-cancer drug efficacy compared to biological correlates – Normal signaling cell line, BT20 continued. BT-20 cells […]
# Figure S11. CELsignia test is more sensitive and rapid for detecting anti-cancer drug efficacy compared to biological correlates – Normal signaling cell line, BT-20 continued. BT-20 cells
# A549 cells = experiment: Flow cytometry of cell toxicity markers, A549, 72 h; assay type: cell-based, human; details: neratinib and/or tepotinib
# Method: For analysis of cell toxicity, single cell suspensions were stained with TMRE (200 nM for 30 min), washed with FACS buffer, and stained with Annexin V-AlexaFluor647 (Biolegend; San Diego, CA) following the manufacturers’ instructions. The TMRE/Annexin V stained cells were resuspended in FACS buffer containing Sytox Blue (Thermo Fisher; Waltham, MA) and analyzed on a Novocyte 3000 FACS instrument and NovoExpress software (Agilent; Santa Clara, CA). […]
# marker resistance to prolonged drug treatment – Normal signaling cell line, A549. A549 cell […]
# A549 cells were treated with neratinib […]
# as §1, §2, §3
# HCC1954 xenograft = details: NSG mice; for Tumor reduction, drug arm versus control: oral gavage QD 21 doses, Neratinib 40, Tepotinib 50, Erlotinib 25 mg/kg
# Method: A selection of an appropriate cell line was necessary owing greatly to the limited commercially available tumorigenic breast cancer mouse models with the abnormal signaling function of interest to this study. Female NSG (NOD SCID gamma; NOD.Cg-Prkdc^scid Il2rg^tm1Wjl/SzJ) mice were procured from Jackson Labs (Bar Harbor, Maine, USA). The mice were injected in their fat pad with HCC1954 cells dissolved in 150 µL of a 50% Matrigel solution. Tumors were allowed to form until they reached a minimum average size of 150 mm^3. At this time, the tumor bearing cohort was divided up into 10-mouse treatment groups of uniform distribution of tumor sizes, just prior to initiating treatment. Tumor size and body weights were measured a minimum of twice per week. Upon completion of the study period, the mice were euthanized for necropsy and sample/tissue collection at the study endpoint or when tumor size reached ≥ 2 cm^3.
# Female NSG mice, 4–5 weeks old, were injected subcutaneously in the left mammary fat pad with two million HCC1954 cells. After the average tumor volume reached 150 mm^3 the mice were randomly assigned into six cohorts of 10 mice each (n = 10). Each of the experimental mice were dosed by oral gavage with 100 µL dosing solution daily (QD) for 21 days (21 doses). […] In order to determine the effects of the pan-HER and c-Met antagonists on tumor size, the tumor volume (in mm^3) was measured and plotted as shown in Fig. 8b.
# MDA-MB-231 cells = experiment: Flow cytometry of cell toxicity markers, MDA-MB-231; assay type: cell-based, human; details: 250 nM, singly or in combination, 16h
# Method: as §4
# Figure S8. CELsignia test is more sensitive and rapid for detecting anti-cancer drug efficacy compared to biological correlates – Normal signaling cell line, MDA-MB-231. MDA-MB-231 cells were normal signaling for HER and c-Met by the CELsignia test. To test flow cytometry markers for correlation a test was setup following the dose and time parameters used for the CELsignia test. The cells were seeded in collagen-fibrinogen (CF) coated culture plates and treated […]
# indicated. Cells were harvested and then analyzed by flow cytometry for the markers shown following a period of 16h drug treatment. […]
# these drugs according to the Sytox blue marker.
# as §3
# Figure S10. CELsignia test is more sensitive and rapid for detecting anti-cancer drug efficacy compared to biological correlates – Normal signaling cell line, MDA-MB-231 continued.
# MDA-MB-231 cells were seeded in collagen-fibrinogen (CF) coated culture plates and treated 6h […]
# Cells were harvested and then analyzed by flow cytometry for the markers shown following a period of 16h drug treatment. […]
# according to annexin V marker.
# Figure S12. CELsignia test is more sensitive and rapid for detecting anti-cancer drug efficacy […]
# according to TMRE marker.
# c-Met [2] = biological target: T1, c-Met (Homo sapiens, UniProt P08581); experiment: Cross-talk analysis, inhibition of HGF signal in patient primary tumor cells (CELsignia); details: HGF 50 pM, Erlotinib 500 nM, Tucatinib 250 nM, Tepotinib 50 nM, four-hour period
# T1 sequence (P08581 25-1390): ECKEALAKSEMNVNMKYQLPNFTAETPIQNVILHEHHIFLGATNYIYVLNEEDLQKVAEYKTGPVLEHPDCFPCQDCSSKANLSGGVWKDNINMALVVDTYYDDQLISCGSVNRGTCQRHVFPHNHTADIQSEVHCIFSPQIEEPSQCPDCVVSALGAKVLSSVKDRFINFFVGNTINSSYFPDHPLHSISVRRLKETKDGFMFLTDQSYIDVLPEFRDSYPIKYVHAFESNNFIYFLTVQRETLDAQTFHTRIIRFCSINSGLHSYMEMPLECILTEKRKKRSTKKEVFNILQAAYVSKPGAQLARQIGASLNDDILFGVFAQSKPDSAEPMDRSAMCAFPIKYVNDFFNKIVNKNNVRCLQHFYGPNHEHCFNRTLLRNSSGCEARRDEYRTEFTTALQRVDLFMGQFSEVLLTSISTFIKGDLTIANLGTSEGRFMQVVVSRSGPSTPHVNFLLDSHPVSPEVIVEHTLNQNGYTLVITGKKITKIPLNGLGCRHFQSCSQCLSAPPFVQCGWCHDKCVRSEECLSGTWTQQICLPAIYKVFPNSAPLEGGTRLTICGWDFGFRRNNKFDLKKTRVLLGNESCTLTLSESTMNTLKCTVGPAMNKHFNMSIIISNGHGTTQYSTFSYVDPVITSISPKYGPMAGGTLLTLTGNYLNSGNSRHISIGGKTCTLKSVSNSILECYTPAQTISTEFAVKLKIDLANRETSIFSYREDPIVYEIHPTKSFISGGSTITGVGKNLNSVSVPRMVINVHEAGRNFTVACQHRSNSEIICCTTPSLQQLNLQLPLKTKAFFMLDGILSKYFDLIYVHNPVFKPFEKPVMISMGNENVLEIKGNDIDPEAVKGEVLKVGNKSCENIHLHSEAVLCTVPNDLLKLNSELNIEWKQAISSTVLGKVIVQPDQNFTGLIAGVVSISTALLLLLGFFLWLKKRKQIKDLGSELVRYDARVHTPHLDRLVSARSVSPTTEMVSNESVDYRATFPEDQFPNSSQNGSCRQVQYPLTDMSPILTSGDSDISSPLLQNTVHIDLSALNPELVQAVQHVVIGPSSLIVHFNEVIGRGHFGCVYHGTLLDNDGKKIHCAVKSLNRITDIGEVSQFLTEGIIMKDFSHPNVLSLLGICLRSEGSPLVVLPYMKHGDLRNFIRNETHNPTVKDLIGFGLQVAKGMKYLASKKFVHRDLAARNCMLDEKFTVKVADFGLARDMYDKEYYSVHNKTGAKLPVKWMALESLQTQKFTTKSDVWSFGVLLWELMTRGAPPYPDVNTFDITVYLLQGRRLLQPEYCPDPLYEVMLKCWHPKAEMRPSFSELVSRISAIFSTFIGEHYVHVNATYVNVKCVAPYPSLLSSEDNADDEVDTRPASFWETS
# [3] = tested on: HER/c-met signaling in HCC1954 cells; experiment: CELsignia analysis of HCC1954 cells, antagonists against cocktail of agonists (NRG, EGF, HGF); assay type: cell-based, human; details: cocktail NRG 3 nM, EGF 0.3 nM, HGF 50 pM, errors are standard deviation
# Method: During the combined drug testing, we investigated the benefit of targeting HER1 specifically in combination with c-Met.
# 2.5 3x GF (N RG 3 n M, E G F 0. 3 nM , HG F 50 p M)
# Fig. S6: Impedance time course example for antagonist effects on a cocktail of agonists
# (NRG, EGF and HGF) for HCC1954 used to derive data in Table 7 (N of 4 experiments).
# Also included on the plot timecourse are cells only (HSSM, red line) untreated by agonist
# [4] = tested on: HER-family and c-Met receptors; experiment: CELsignia inhibition of combined NRG/EGF/HGF cocktail signal, patient breast cancer cells; assay type: cell-based, human; details: patient C135; Neratinib 500 nM, tepotinib 50 nM; compared to growth factor only well
# Method: To simulate this multiplexed perturbant condition and test the ability of the different targeted drugs to attenuate abnormal signaling from multiplexed agonists, patient breast cancer cells were stimulated with a growth factor cocktail of EGF, NRG1b, and HGF (N/E/H) to simultaneously initiate signaling via the HER-family and c-Met receptors. […] Cell index signaling units were calculated relative to the baseline values obtained from cells that were not treated with either agonists or antagonists.
# [5] = tested on: HER-family (EGF stimulation); experiment: Impedance test IC50 with single growth factor EGF (set-up of median effects, HCC1954); assay type: cell-based, human; details: neratinib + EGF
# Text: Fig. S5: Median effects plots.
# EGF on HCC1954. When CI>1,
# and Talalay. CI<1 is indicative of synergy. C) Antagonist median effects plot of patient sample
# indicative of additivity; CI<1 is indicative of synergy.
# c-Met [6] = biological target: T1, c-Met; experiment: cell-based
# [7] = read-out: Percent inhibition of growth factor signal, patient C753
# [8] = read-out: Percent inhibition of growth factor signal, patient C1061
# [9] = read-out: Percent inhibition of growth factor signal, patient R66
compound,measurement,setting,value
C=CC(=O)N1CCC(Oc2cc3c(Nc4ccc(Cl)c(Cl)c4F)ncnc3cc2OC)CC1 [Poziotinib],IC50,HER-family receptors,1.23 nM
CS(=O)(=O)CCNCc1ccc(-c2ccc3ncnc(Nc4ccc(OCc5cccc(F)c5)c(Cl)c4)c3c2)o1 [Lapatinib],IC50,HER-family receptors,137 nM
CN1CCC(COc2cnc(-c3cccc(Cn4nc(-c5cccc(C#N)c5)ccc4=O)c3)nc2)CC1 [Tepotinib],"Response according to Sytox Blue, annexin V and TMRE markers",BT-474 cells,do not respond
same,effect on pFAK and pAKT population distributions,[1]; single agent,no detectable dose-dependent effect
same,Response according to TMRE marker,BT-20 cells,do not respond
same,Response according to annexin V marker,BT-20 cells,do not respond
same,Response according to the Sytox blue marker,BT-20 cells,do not respond
same,"Response according to Sytox Blue, annexin V and TMRE markers",A549 cells,do not respond
same,"Tumor reduction, drug arm versus control",HCC1954 xenograft,10% (p = 0.780)
same,Adverse observations in treated cohort,"HCC1954 xenograft; oral gavage QD, Tepotinib 50 mg/kg, Neratinib + Tepotinib 40 + 50 mg/kg","^#Due to weight loss, 1 mouse given 3 day dose holiday due, and 1 mouse given 7 day dose holiday"
same,Response according to TMRE marker,MDA-MB-231 cells,do not respond
same,Response according to annexin V marker,MDA-MB-231 cells,do not respond
same,Response according to the Sytox blue marker,MDA-MB-231 cells,do not respond
C=CC(=O)N1CCC[C@@H](n2nc(-c3ccc(Oc4ccccc4)cc3)c3c(N)ncnc32)C1 [Ibrutinib],IC50,HER-family receptors,13.1 nM
Cc1cc(Nc2ncnc3ccc(NC4=NC(C)(C)CO4)cc23)ccc1Oc1ccn2ncnc2c1 [Tucatinib],inhibition at 0.25 µM,c-Met [2]; [7],-6%
same,inhibition at 0.25 µM,c-Met [2]; [8],-13%
same,inhibition at 0.25 µM,c-Met [2]; [9],25%
same,IC50,HER-family receptors,333 nM
C#Cc1cccc(Nc2ncnc3cc(OCCOC)c(OCCOC)cc23)c1 [Erlotinib],inhibition at 0.5 µM,c-Met [2]; [7],15%
same,inhibition at 0.5 µM,c-Met [2]; [8],7%
same,inhibition at 0.5 µM,c-Met [2]; [9],38%
same,HER/c-met inhibition (%),[3],9.2 ± 10.3 (n = 2) %
same,"Tumor reduction, drug arm versus control",HCC1954 xenograft,5% (p = 0.870)
CCOc1cc2ncc(C#N)c(Nc3ccc(OCc4ccccn4)c(Cl)c3)c2cc1NC(=O)/C=C/CN(C)C [Neratinib],"Order of efficacy against response to simultaneous NRG, EGF and HGF",[4],more efficacious
same,"Response according to Sytox Blue, annexin V and TMRE markers",BT-474 cells,do not respond
same,distribution of pFAK high cells,[1],not significantly altered
same,frequency of pAKT high cells,[1]; singly and in combination with tepotinib,dose-dependent decline
same,Response according to TMRE marker,BT-20 cells,do not respond
same,Response according to annexin V marker,BT-20 cells,do not respond
same,Response according to the Sytox blue marker,BT-20 cells,do not respond
same,HER/c-met inhibition (%),[3],14.6 ± 29.6 (n = 4) %
same,"Response according to Sytox Blue, annexin V and TMRE markers",A549 cells,do not respond
same,IC50,HER-family receptors,4.81 nM
same,IC50,[5],15 nM
same,"Tumor reduction, drug arm versus control",HCC1954 xenograft,54% (p = 0.003)
same,"Tumor reduction, drug arm versus control",HCC1954 xenograft; listed as neratinib,54%
same,Response according to TMRE marker,MDA-MB-231 cells,do not respond
same,Response according to annexin V marker,MDA-MB-231 cells,do not respond
same,Response according to the Sytox blue marker,MDA-MB-231 cells,do not respond
C[C@@H](c1ccc2nccn2c1)n1nnc2ncc(-c3cnn(C)c3)nc21 [Savolitinib],IC50,c-Met [6],3.56 nM
COc1cc2ncnc(Nc3ccc(F)c(Cl)c3)c2cc1NC(=O)/C=C/CN1CCCCC1 [Dacomitinib],IC50,HER-family receptors,22.1 nM
CNC(=O)CN1CCC(Oc2cc3c(Nc4cccc(Cl)c4F)ncnc3cc2OC)CC1 [Sapitinib],IC50,HER-family receptors,41.3 nM
